{
  "source": "patent US20140072624A1",
  "about": "“UNIT DOSE FORM FOR ORAL ADMINISTRATION” (THRESHOLD PHARMACEUTICALS, INC., priority 2011, published 2014)",
  "key": {"[1]": {"assay": "Pharmacokinetics of TH-302 in rats after a single IV dose", "assay_type": "in vivo, Sprague-Dawley rats", "conditions": "rat; for Tmax: Sprague-Dawley, plasma"}, "[2]": {"assay": "Single dose pharmacokinetics of TH-302 after a 30-min intravenous infusion in rats", "assay_type": "in vivo", "conditions": "for Vd: read-out: Vss"}, "[3]": {"assay": "Pharmacokinetics of TH-302 in rats after a single oral (PO) dose", "assay_type": "in vivo, Sprague-Dawley rats", "protocol": "TH-302 (1-methyl-2-nitro-1H-imidazole-5-yl) N,N′-bis(2-bromoethyl) diamidophosphate, m.w.=449) that was about 96% pure based on high performance liquid chromatography (HPLC) analysis, was used. Male Sprague-Dawley rats (n=3 per time point) were administered a single oral dose of 100 mg/kg TH-302 (see, Table 1 and FIG. 1)."}, "[4]": {"conditions": "Sprague-Dawley, rat, plasma, female rats, 50 mg/kg, 30-min IV infusion"}, "[5]": {"conditions": "Sprague-Dawley, rat, plasma, female rats, 100 mg/kg, 30-min IV infusion"}, "[6]": {"conditions": "Sprague-Dawley, rat, plasma, male rats, 50 mg/kg, 30-min IV infusion"}, "[7]": {"conditions": "Sprague-Dawley, rat, plasma, male rats, 100 mg/kg, 30-min IV infusion"}, "[8]": {"conditions": "Sprague-Dawley, rat, plasma, male rats, 200 mg/kg, 30-min IV infusion"}, "[9]": {"conditions": "male rats, 100 mg/kg, 30-min IV infusion"}, "[10]": {"conditions": "rat, plasma, female rats, 200 mg/kg, 30-min IV infusion"}, "[11]": {"conditions": "male Sprague-Dawley rats, single oral dose 100 mg/kg in normal saline"}, "[12]": {"conditions": "rat, PO, 100 mg/kg, composite data, n = 3 per time point"}},
  "note": "Where two headings read alike, the source gives them in different places.",
  "data": [
    {"smiles": "Cn1c(COP(=O)(NCCBr)NCCBr)cnc1[N+](=O)[O-]", "note": "[TH-302]", "values": [
      {"measurement": "Tmax", "setting": "[1]; 1 mg/kg, n = 3, mean ± S.D.", "result": 1.98, "unit": "min"},
      {"measurement": "Tmax", "setting": "[1]; 5 mg/kg, n = 2, mean ± S.D.", "result": 1.98, "unit": "min"},
      {"measurement": "Tmax", "setting": "[1]; 20 mg/kg, n = 3, mean ± S.D.", "result": 1.98, "unit": "min"},
      {"measurement": "Tmax", "setting": "[1]; 50 mg/kg, n = 3, mean ± S.D.", "result": 1.98, "unit": "min"},
      {"measurement": "AUC (total area under the concentration-time curve from zero to infinity)", "setting": "[1]; 1 mg/kg, n = 3, mean ± S.D.", "result": "0.221 ± 0.054", "unit": "μg-"},
      {"measurement": "Cmax", "setting": "[1]; 1 mg/kg, n = 3, mean ± S.D.", "result": "0.802 ± 0.165", "unit": "μg/m"},
      {"measurement": "AUC (total area under the concentration-time curve from zero to infinity)", "setting": "[1]; 5 mg/kg, n = 2", "result": 0.826, "unit": "μg-"},
      {"measurement": "Cmax", "setting": "[1]; 5 mg/kg, n = 2", "result": 3.82, "unit": "μg/m"},
      {"measurement": "AUC (total area under the concentration-time curve from zero to infinity)", "setting": "[1]; 20 mg/kg, n = 3, mean ± S.D.", "result": "3.30 ± 0.36", "unit": "μg-"},
      {"measurement": "Cmax", "setting": "[1]; 20 mg/kg, n = 3, mean ± S.D.", "result": "13.5 ± 1.52", "unit": "μg/m"},
      {"measurement": "AUC (total area under the concentration-time curve from zero to infinity)", "setting": "[1]; 50 mg/kg, n = 3, mean ± S.D.", "result": "8.47 ± 0.02", "unit": "μg-"},
      {"measurement": "Cl", "setting": "[1]; 50 mg/kg, n = 3, mean ± S.D.", "result": "98.5 ± 4.17", "unit": "mL/min/kg"},
      {"measurement": "Cmax", "setting": "[1]; 50 mg/kg, n = 3, mean ± S.D.", "result": "35.5 ± 3.01", "unit": "μg/m"},
      {"measurement": "Vss", "setting": "[1]; 50 mg/kg, n = 3, mean ± S.D.", "result": "1.67 ± 0.04", "unit": "L/kg"},
      {"measurement": "Cmax", "setting": "[2]; [4]", "result": 14100, "unit": "ng/mL"},
      {"measurement": "Tmax", "setting": "[2]; [4]", "result": 31, "unit": "min"},
      {"measurement": "clearance", "setting": "[2]; [4]", "result": 115, "unit": "mL/min/kg"},
      {"measurement": "Vd", "setting": "[2]; [4]", "result": 2.81, "unit": "L/kg"},
      {"measurement": "Cmax", "setting": "[2]; [5]", "result": 30000, "unit": "ng/mL"},
      {"measurement": "Tmax", "setting": "[2]; [5]", "result": 30, "unit": "min"},
      {"measurement": "clearance", "setting": "[2]; [5]", "result": 103, "unit": "mL/min/kg"},
      {"measurement": "Vd", "setting": "[2]; [5]", "result": 2.59, "unit": "L/kg"},
      {"measurement": "Vd", "setting": "[2]; Sprague-Dawley, rat, plasma, female rats, 200 mg/kg, 30-min IV infusion", "result": 2.35, "unit": "L/kg"},
      {"measurement": "Cmax", "setting": "[2]; [6]", "result": 15600, "unit": "ng/mL"},
      {"measurement": "Tmax", "setting": "[2]; [6]", "result": 31, "unit": "min"},
      {"measurement": "clearance", "setting": "[2]; [6]", "result": 104, "unit": "mL/min/kg"},
      {"measurement": "Vd", "setting": "[2]; [6]", "result": 2.57, "unit": "L/kg"},
      {"measurement": "Tmax", "setting": "[2]; [7]", "result": 33, "unit": "min"},
      {"measurement": "clearance", "setting": "[2]; [7]", "result": 98.3, "unit": "mL/min/kg"},
      {"measurement": "Cmax", "setting": "[2]; Sprague-Dawley, rat, plasma, male rats, 100 mg/kg, 30-min IV infusion (end of infusion)", "result": 30900, "unit": "ng/mL"},
      {"measurement": "Vd", "setting": "[2]; [7]", "result": 2.59, "unit": "L/kg"},
      {"measurement": "Cmax", "setting": "[2]; [8]", "result": 62500, "unit": "ng/mL"},
      {"measurement": "Tmax", "setting": "[2]; [8]", "result": 33, "unit": "min"},
      {"measurement": "clearance", "setting": "[2]; [8]", "result": 89.7, "unit": "mL/min/kg"},
      {"measurement": "Vd", "setting": "[2]; [8]", "result": 2.51, "unit": "L/kg"},
      {"measurement": "AUC", "setting": "[2]; female, Sprague-Dawley, rat, plasma, iv, 50 mg/kg, female rats, 50 mg/kg, 30-min IV infusion, read-out: AUC", "result": 7330, "unit": "ng·h/mL"},
      {"measurement": "half-life", "setting": "[2]; female, Sprague-Dawley, rat, plasma, iv, 50 mg/kg, female rats, 50 mg/kg, 30-min IV infusion, read-out: Half-Life (converted)", "result": 19.1, "unit": "min"},
      {"measurement": "AUC", "setting": "[2]; female, Sprague-Dawley, rat, plasma, iv, 100 mg/kg, female rats, 100 mg/kg, 30-min IV infusion, read-out: AUC", "result": 16100, "unit": "ng·h/mL"},
      {"measurement": "half-life", "setting": "[2]; female, Sprague-Dawley, rat, plasma, iv, 100 mg/kg, female rats, 100 mg/kg, 30-min IV infusion, read-out: Half-Life (converted)", "result": 17.2, "unit": "min"},
      {"measurement": "AUC", "setting": "[2]; female, rat, plasma, iv, 200 mg/kg, female rats, 200 mg/kg, 30-min IV infusion, read-out: AUC", "result": 40600, "unit": "ng·h/mL"},
      {"measurement": "half-life", "setting": "[2]; female, rat, plasma, iv, 200 mg/kg, female rats, 200 mg/kg, 30-min IV infusion, read-out: Half-Life (converted)", "result": 23.4, "unit": "min"},
      {"measurement": "AUC", "setting": "[2]; [9]", "result": 17000, "unit": "ng·h/mL"},
      {"measurement": "half-life", "setting": "[2]; [9]", "result": 16.1, "unit": "min"},
      {"measurement": "AUC", "setting": "[2]; male, Sprague-Dawley, rat, plasma, iv, 50 mg/kg, male rats, 50 mg/kg, 30-min IV infusion, read-out: AUC", "result": 7940, "unit": "ng·h/mL"},
      {"measurement": "half-life", "setting": "[2]; male, Sprague-Dawley, rat, plasma, iv, 50 mg/kg, male rats, 50 mg/kg, 30-min IV infusion, read-out: Half-Life (converted)", "result": 20, "unit": "min"},
      {"measurement": "AUC", "setting": "[2]; male, Sprague-Dawley, rat, plasma, iv, 100 mg/kg, male rats, 100 mg/kg, 30-min IV infusion, read-out: AUC", "result": 17100, "unit": "ng·h/mL"},
      {"measurement": "half-life", "setting": "[2]; male, Sprague-Dawley, rat, plasma, iv, 100 mg/kg, male rats, 100 mg/kg, 30-min IV infusion, read-out: Half-Life (converted)", "result": 16.2, "unit": "min"},
      {"measurement": "AUC", "setting": "[2]; male, Sprague-Dawley, rat, plasma, iv, 200 mg/kg, male rats, 200 mg/kg, 30-min IV infusion, read-out: AUC", "result": 37600, "unit": "ng·h/mL"},
      {"measurement": "half-life", "setting": "[2]; male, Sprague-Dawley, rat, plasma, iv, 200 mg/kg, male rats, 200 mg/kg, 30-min IV infusion, read-out: Half-Life (converted)", "result": 19.4, "unit": "min"},
      {"measurement": "Cmax", "setting": "[2]; [10]", "result": 71100, "unit": "ng/mL"},
      {"measurement": "Tmax", "setting": "[2]; [10]", "result": 41, "unit": "min"},
      {"measurement": "clearance", "setting": "[2]; [10]", "result": 80.7, "unit": "mL/min/kg"},
      {"measurement": "time of mean peak plasma concentration (first sampled time point)", "setting": "[3]; male Sprague-Dawley rats, single oral dose 100 mg/kg", "result": 15, "unit": "min"},
      {"measurement": "mean peak plasma concentration", "setting": "[3]; [11]", "result": 15.8, "unit": "µg/mL"},
      {"measurement": "time of mean peak plasma concentration (first sampling time point)", "setting": "[3]; [11]", "result": 0.25, "unit": "h"},
      {"measurement": "oral absorption (in words)", "setting": "[3]; male Sprague-Dawley rats, single oral dose 100 mg/kg, 100 mg/kg", "result": "rapidly and well absorbed"},
      {"measurement": "t1/2", "setting": "[3]; male rat, PO, 100 mg/kg, composite data, n = 3 per time point", "result": 96, "unit": "min"},
      {"measurement": "Tmax", "setting": "[3]; male, Sprague-Dawley, plasma, rat, PO, 100 mg/kg, composite data, n = 3 per time point", "result": 15, "unit": "min"},
      {"measurement": "bioavailability", "setting": "[3]; male, Sprague-Dawley, rat, plasma, oral, 100 mg/kg, male rat, PO, 100 mg/kg vs 100 mg/kg 30 minute IV infusion, read-out: Oral F (absolute oral bioavailability)", "result": 77.3, "unit": "%"},
      {"measurement": "AUC (total area under the concentration-time curve from zero to infinity)", "setting": "[3]; [12]", "result": 13.1, "unit": "μg-"},
      {"measurement": "Cmax", "setting": "[3]; [12]", "result": 15.8, "unit": "μg/m"},
      {"measurement": "AUC", "setting": "[3]; rat, plasma, male Sprague-Dawley rats, single oral dose 100 mg/kg, read-out: mean area under the curve (AUC)", "result": 13100, "unit": "ng·h/mL"}
    ]}
  ]
}
